Common to all, as to assay: growth of human tumour cells (NCI), 48 h
Experiment [1] relates to CCRF-CEM leukemia.
The subject of experiment [2] is SW-620 colon.
Experiment [3] concerns SN12C renal.
Experiment [4] relates to K-562 leukemia.
In experiment [5] the test system is HOP-92 NSCLC.
Experiment [6] deals with HOP-62 NSCLC.
Experiment [7] has as its system DMS 273 small cell lung.
In experiment [8] the test system is UACC-257 melanoma.
Experiment [9] concerns KM12 colon.
Experiment [10] deals with NCI-H23 lung.

SMILES strings stand for the structures.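 Briefly, cells in 96-well plates were exposed to five compound concentrations for 48 h, and endpoints were estimated by linear interpolation. Here, GI50 denotes the concentration required for 50% inhibition of growth. The concentration for full growth arrest is given as TGI.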

`CC(=O)N(C(C)=O)C1=C2c3ccccc3N(S(=O)(=O)c3ccccc3)C2n2c(=O)n(-c3ccccc3)c(=O)n2C1` (stereo not given): the TGI in experiment [1] is > 100 µM; in experiment [2], > 100 µM; in experiment [3], > 100 µM; in [4], > 100 µM; in [5] it was 73.9 µM; in experiment [6], > 100 µM. Besides, the TGI in experiment [7] is > 100 µM; in experiment [8], > 100 µM; in experiment [9] it was > 100 µM; in experiment [10], 95.9 µM.

`CCCCCCCCCCCCCC(=O)OCC1OC(=O)CC1O` (stereo not given): the TGI in [1] is > 100 µM; in experiment [2] it was > 100 µM; in experiment [3] it was > 100 µM; in experiment [4], 61.5 µM; in [5], 40.2 µM; in [6] it was > 100 µM. For the same compound, the TGI in experiment [7], in experiment [8], in experiment [9] and in experiment [10] was > 100 µM throughout.

As to `CC(=O)[CH-]C(C)=O.[CH2-]C.[CH2-]C.[Tl+3]`, the GI50 in [1], in experiment [2], in experiment [3], in experiment [4], in [5] and in [6] was > 100 µM throughout. In addition, the GI50 in [7], in experiment [8], in [9] and in experiment [10] was > 100 µM in each case. For the same compound, the TGI in experiment [1], in experiment [2], in experiment [3], in [4], in experiment [5] and in experiment [6] was > 100 µM throughout. For the same compound, the TGI in experiment [7], in experiment [8], in [9] and in [10] was > 100 µM each time.

In the case of `Cc1ccccc1Nc1nc2c(s1)C(=O)c1ccccc1C2=O`, the TGI was > 37.5 µM in [1]; 6.65 µM in experiment [2]; 6.32 µM in experiment [3]; > 36.2 µM in experiment [4]; 25.1 µM in experiment [5]; 30.2 µM in [6]. For the same compound, the TGI in experiment [7] is 21.4 µM; in experiment [8], 12.4 µM; in [9] it was 23.4 µM; in experiment [10], 14.1 µM.

On to `CC1=C(C(=O)Nc2ccccc2C)C(/C=C/c2ccccc2)C(C(=O)Nc2ccccc2C)=C(C)N1`, for which the TGI in [1], in experiment [2], in experiment [3], in [4], in experiment [5] and in experiment [6] was > 100 µM in each case. Further, the TGI in experiment [7], in experiment [8], in experiment [9] and in [10] was > 100 µM in each case.

In the case of `CCOC(=O)c1ccc(N[C@@H]2c3cc4c(cc3C(C3=CC(=O)C(=O)C(OC)=C3)[C@H]3C(=O)OCC32)OCO4)cc1` (stereo not given in full), the TGI was > 28.1 µM in [1]; 20.1 µM in [2]; > 21.1 µM in [3]; > 69.4 µM in [4]; 25 µM in experiment [5]; 1.66 µM in experiment [6]. For the same compound, the TGI was 13.5 µM in experiment [7], > 82.6 µM in [8], > 33.2 µM in [9] and 4.21 µM in experiment [10].

The values above are taken from PubChem BioAssay (NCI).
